This note sets out measurements from publication PMC5109658, “Antibacterial and cytotoxic cytochalasins from the endophytic fungus Phomopsis sp. harbored in Garcinia kola (Heckel) nut” (BMC Complementary and Alternative Medicine, 2016).

The test system of data set [1] is S. flexneri SDINT. In words: Broth microdilution MIC/MBC. Type of data set: cell-based, Shigella flexneri. The protocol: A total of six bacterial strains were tested for their susceptibility to compounds and these strains were taken from our laboratory collection (kindly provided by Dr. T. Ramamurthy, NICED, Kolkata). Among the clinical strains of Vibrio cholerae used in this study, strains NB2 and SG24 and CO6 belonged to O1 and O139 serotypes, respectively. […]. The other strains used in this study were V. cholerae non-O1, non-O139 (strain PC2); […]. The American Type Culture Collection (ATCC) strain, Staphylococcus aureus ATCC 25923, was used for quality control. The bacterial strains were maintained on agar slant at 4 °C and subcultured on a fresh appropriate agar plates 24 h prior to any antibacterial test. The Mueller Hinton Agar (MHA) was used for the activation of bacteria. The Mueller Hinton Broth (MHB) and nutrient agar (Hi-Media) were used for the MIC and MBC determinations respectively.
Suspensions of bacteria were prepared in MHB from cells arrested during their logarithmic phase growth (4 h) on MHB at 37 °C. The turbidity of the microbial suspension was read spectrophotometrically at 600 nm and adjusted to an OD of 0.1 with MHB, which is equivalent to 1 × 10^8 CFU/mL. From this prepared solution, other dilutions were made with MHB to yield 1x10^6 CFU/mL.
MIC and MBC of compounds 1–3 were assessed using the broth microdilution method recommended by the National Committee for Clinical Laboratory Standards with slight modifications. Each test sample was dissolved in dimethylsulfoxide (DMSO) to give a stock solution. The 96-well round bottom sterile plates were prepared by dispensing 180 μL of the inoculated broth (1x10^6 CFU/mL) into each well. A 20 μL aliquot of the stock solution of compound was added. The concentrations of sample tested were 0.125, 0.25, 0.50, 1, 2, 4, 8, 16, 32, 64, 128, 256 and 512 μg/mL. […] Dilutions of tetracycline and ampicillin served as positive controls, while broth with 20 μL of DMSO was used as negative control. The ATCC strain Staphylococcus aureus ATCC 25923 was included for quality assurance purposes. Plates were covered and incubated for 24 h at 37 °C. After incubation, minimum inhibitory concentrations (MIC) were read visually; all wells were plated to nutrient agar (Hi-Media) and incubated. The minimal bactericidal concentration (MBC) was defined as a 99.9% reduction in CFU from the starting inoculums after 24 h incubation interval.
On the technique in general: Dilution methods test growth across graded concentrations, often in twofold steps.

Data set [2] can be described thus: MTT cytotoxicity assay. Type of data set: cell-based, Human. To be noted: human, HeLa cells; MTT, 24 h, mean ± SD; read-out: Cytotoxicty (LC50) HeLa cells. The procedure:
(§1) HeLa (Human cervical cancer cell line, ATCC No. CCL-2) and Vero cells (African green monkey kidney cells, normal non-cancer cells, ATCC No. CCL-81), obtained from the American Type Culture Collection (ATCC) were used in this study. Cytotoxic activity was determined using the 3-(4,5-dimethylthiazol-2-yl)-2,5-diphenyltetrazolium bromide (MTT, Sigma, USA) assay reported by Mosmann for the HeLa and Vero cells. This cell viability assay is based on living cell‘s property to transform the MTT dye tetrazolium ring into a purple-colored formazan structure due to the action of mitochondrial and other dehydrogenases inside the cell. The color intensity yielded by the cell population is directly proportional to the number of viable cells, and one can quantify the absorbance measurements using mathematical parameters. Each test sample was dissolved in dimethylsulfoxide (DMSO) to give a stock solution. Compounds 1–3 were prepared from the stock solutions by serial dilution in RPMI 1640 to give a volume of 100 μL in each well of a microtiter plate (96-well). Each well was filled with 100 μL of cells at 2 × 10^5 cells/mL. The assay for each concentration of compound was performed in triplicates and the culture plates were kept at 37 °C with 5% (v/v) CO2 for 24 h. After removing the supernatant of each well and washing twice by PBS, 20 μL of MTT solution (5 mg/mL in PBS) and 100 μL of medium were then introduced. After 4 h of incubation, 100 μL of DMSO were added to each well to dissolve the formazan crystals and the absorbance values at 490 nm were measured with a microplate reader (Bio-RAD 680, USA). The relative cell viability (%) was expressed as a relative percentage of treated cells to the untreated control cells (TC/UC × 100). The rate of cell inhibition was calculated using the following formula: inhibition rate = [1- (ODtest/ODnegative control)] × 100%. The LC50 values were calculated as the concentration of test sample resulting in a 50% reduction of absorbance compared to untreated cells. Cells treated with 5-fluorouridine + RPMI 1640 served as positive control while cells left untreated + 1% (v/v) DMSO + RPMI 1640 were used as negative control.
In general terms: Tetrazolium dyes change colour on reduction, which living cells bring about.

The test system of data set [3] is HeLa cells. As to the kind of experiment: MTT cytotoxicity assay. To be noted: SI = LC50 on Vero cells / LC50 on HeLa cells. Type of data set: cell-based, Human. The protocol:
as §1

Data set [4] in a line: MTT cytotoxicity assay. Type of data set: cell-based. To be noted: African green monkey, Vero cells, normal non-cancer cells, mean ± SD, read-out: Cytotoxicty (LC50) Vero cells. The procedure:
as §1

Converted amounts (≈) assume the structure as drawn. Where two headings read alike, the source gives them in different places.

Consider `C=C1[C@@H](C)C2[C@H](Cc3ccccc3)NC(=O)[C@@]23C(/C=C/C[C@H](C)C[C@@](C)(O)/C=C/[C@H]3OC(C)=O)[C@@H]1O` (stereo partly shown) [Compound 2, cytochalasin H], for which the MBC/MIC in data set [1] (S. flexneri SDINT) came to 1. In addition, the “Selectivity Index S. flexneri SDINT” value in data set [1] (SI = LC50 on Vero cells / MIC) is recorded as 1.00. The MBC – broadly, the smallest concentration meeting the test's criterion for killing – in data set [1] (Shigella flexneri, S. flexneri SDINT, 99.9% reduction in CFU after 24 h) worked out at 128 µg/mL (≈ 259 µM). Further, the MIC (commonly the lowest concentration found to suppress growth) in data set [1] (Shigella flexneri, S. flexneri SDINT, 24 h at 37 °C, read-out: MIC) is 128 µg/mL (≈ 259 µM). In addition, the CC50 at 24 h in data set [2] is 35.7 ± 1.31 µg/mL (≈ 72.3 µM); in data set [4], 129.1 ± 1.2 µg/mL (≈ 262 µM). For the same compound, in data set [3], the “Selectivity Index HeLa cells” value is given as 3.61.
